These results are taken from PMC11952846, “The sterol-regulating human ARV1 binds cholesterol and phospholipids through its conserved ARV1 homology domain” (The Journal of Biological Chemistry, 2025).

One test deals with T1, 6XHIS-ARV1-N98 K84A (Homo sapiens, UniProt Q9H2C2, K84A).
T1 construct: Expressing amino-terminal 98 amino acids of ARV1; made in house; host or cells: E. coli BL21 (pET-28a(+))
T1 sequence (Q9H2C2 1-98 K84A): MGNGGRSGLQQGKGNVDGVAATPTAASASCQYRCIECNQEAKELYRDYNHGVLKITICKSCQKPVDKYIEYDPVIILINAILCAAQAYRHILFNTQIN
As to the kind of experiment: Lipid overlay far western, site-directed mutant. The test is classed as binding. The conditions noted are these: compared to the ARV1-N98 protein. The procedure:
(§1) Lipid overlays were blocked in TBST-BSA (100 mM Tris–HCl buffer, pH 7.5, 150 mM NaCl, 0.5% Tween 20, 3% bovine serum albumin) for 1 h and subsequently washed eight separate times with TBST for 2 min each. Overlays were incubated with 0.5 μg/ml GST-tagged or 6XHIS-tagged proteins in 3% TBST-BSA buffer containing 0.1% Triton X-100, for 1 h at room temperature and washed as above. Overlays were incubated with either anti-GST or anti-6XHIS monoclonal antibodies at a 1:1000 dilution in TBST-BSA for 1 h at room temperature followed by eight washes in TBST. Overlays were visualized using Immobilon Western Chemiluminescent horseradish peroxidase substrate and protein–lipid interaction was detected using a GE ImageQuant LAS 3000 imager.

For a further test, the target named is T2, GST-ARV1-N50 (Homo sapiens, UniProt Q9H2C2).
T2 construct: Expresses amino-terminal 50 amino acids of ARV1; made in house; host or cells: E. coli BL21 (pGEX-4T1)
T2 sequence (Q9H2C2 1-50): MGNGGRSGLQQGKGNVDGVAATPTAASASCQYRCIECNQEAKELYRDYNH
The test is described as follows: Lipid overlay far western, truncation. The test is classed as binding. The conditions noted are these: compared to ARV1-N98 / ARV1-N70. As to the method:
as §1

In a further test the target is T3, 6XHIS-N98 K67A (Homo sapiens, UniProt Q9H2C2, K67A).
T3 construct: made in house; host or cells: E. coli BL21
T3 sequence (Q9H2C2 1-98 K67A): T1 sequence (Q9H2C2 1-98 K84A) with K67A, A84K
As to the kind of experiment: HTRF phospholipid lipid-binding assay, mutant. Details: key: NC, no change. Conditions: biotinylated lipid; NC = no change vs N98. An excerpt: An HTRF assay was developed for 6XHIS-ARV1-N98-lipid binding. HTRF measures analyte interactions through fluorescence resonance energy transfer technology and time-resolved measurements ([53]). The interaction between two molecules can be quantified through binding each individual molecule involved with a fluorescent label and then analyzing the transfer of energy between the initial donor fluorophore and the secondary acceptor fluorophore. Following excitation of the first fluorophore, transfer of energy can only occur if the molecules bound with the fluorescent tags are within proximity to each other.
Assays were plated in 384-well flat bottom microplates (Greiner Bio, catalog #784075-25). Proteins were diluted using binding buffer (20 mM Hepes buffer, pH 7.2, containing 0.1% BSA, and 0.01% Tween20) to a stock concentration of 0.75 μM, and biotinylated phospholipids were dispensed, dried under nitrogen gas, and resuspended in binding buffer to a stock concentration of 50 μM. The lipid stock solution was diluted by 1:2 for a series of 12 serial dilutions. For the assay, in sequential order, 6 μl of binding buffer was loaded into the plate in triplicate for each dilution of phospholipid. To this, 2 μl of 0.75 μM 6XHIS-ARV1-N98 was added, followed by 2 μl of biotinylated phospholipid. Immediately following each addition loaded into the plate, the plate was centrifuged for 1 min at 1000 rpm to bring the contents to the bottom of the well. Next, detection antibodies were mixed with detection buffer (20 mM Hepes buffer, pH 8.5, containing 0.01% BSA and 200 mM KF). Antibodies were a MAb anti-6XHIS Europium kryptate-conjugated D1 fluorescent antibody (Cisbio, #61HISKLA) and Streptavidin-conjugated d2 fluorescent antibody (Cisbio, #610SADLA). For each 1000 μl of detection buffer, 5 μl of each antibody was added just prior to loading 10 μl into each well. The plate was again centrifuged for 1 min at 1000 rpm and stored in a sealed container overnight, in the dark. Plates were read on a PerkinElmer EnVision Xcite Multilabel plate reader.
Curves were logarithmically transformed and normalized to a common scale before being fit with a nonlinear regression of the agonist against the normalized response. This generated half maximal effective concentration values (EC50; M) that could then be compared between different lipids. In the context of our study, EC50 values were defined as a measure of protein sensitivity to binding to a particular lipid within a dose response curve. For phospholipid competition analysis, IC50; M values were determined using nonlinear regression of the inhibitor against normalized response.
(TR-FRET usually uses a lanthanide donor and a delayed reading to cut background.)

The target of a further test is T4, 6XHIS-ARV1-N98 K67A (Homo sapiens, UniProt Q9H2C2, K67A).
T4 construct: Expressing amino-terminal 98 amino acids of ARV1; made in house; host or cells: E. coli BL21 (pET-28a(+))
T4 sequence (Q9H2C2 1-98 K67A): T1 sequence (Q9H2C2 1-98 K84A) with K67A, A84K
As to the kind of experiment: Lipid overlay far western, site-directed mutant. The test is classed as binding. The conditions noted are these: compared to the ARV1-N98 protein. The procedure: as §1

For a further test, the target named is T5, 6XHIS-ARV1-N98 C34/C37A (Homo sapiens, UniProt Q9H2C2, C34A/C37A).
T5 construct: Expressing amino-terminal 98 amino acids of ARV1; made in house; host or cells: E. coli BL21 (pET-28a(+))
T5 sequence (Q9H2C2 1-98 C34A/C37A): T1 sequence (Q9H2C2 1-98 K84A) with C34A, C37A, A84K
As to the kind of experiment: Lipid overlay far western, site-directed mutant. Conditions: compared to the ARV1-N98 protein. The test is classed as binding. The procedure: as §1

Positions count from the first letter of the chain named.

Regarding `CCCCC/C=C\C/C=C\CCCCCCCC(=O)OC[C@H](COP(=O)(O)OCC(O)COP(=O)(O)OC[C@@H](COC(=O)CCCCCCC/C=C\C/C=C\CCCCC)OC(=O)CCCCCCC/C=C\C/C=C\CCCCC)OC(=O)CCCCCCC/C=C\C/C=C\CCCCC` (some centres unmarked) [CL, cardiolipin], the “change of lipid-protein interaction” value is reported as “weakened” at 6XHIS-ARV1-N98 K84A and “eliminated” at GST-ARV1-N50.
Regarding `CCCCCCCCCCCCCCCC(=O)OC[C@H](COP(=O)(O)O)OC(=O)CCCCCCCCCCCCCCC` [PA, phosphatidic acid], the “Bio-PL, EC50, M ± S.D.” value at 6XHIS-N98 K67A is given as “NC”.
Consider `CCCCCCCC/C=C\CCCCCCCC(=O)OC[C@H](COP(=O)(O)OCC(O)CO)OC(=O)CCCCCCC/C=C\CCCCCCCC` (some centres unmarked) [PG, phosphatidylglycerol], for which the “Bio-PL, EC50, M ± S.D.” value on 6XHIS-N98 K67A was “reduced PG binding”. Further, the “change of lipid-protein interaction” value on 6XHIS-ARV1-N98 K84A was “weakened”; on 6XHIS-ARV1-N98 K67A it was “weakened”; on 6XHIS-ARV1-N98 C34/C37A it was “weakened or eliminated”; at GST-ARV1-N50 it was “eliminated”.
Turning to `CCCCCCCCCCCCCCCCCC(=O)OC[C@H](COP(=O)(O)OC[C@H](N)C(=O)O)OC(=O)CCCCCCCCCCCCCCCCC` [PS, phosphatidylserine], on 6XHIS-N98 K67A, the “Bio-PL, EC50, M ± S.D.” value is recorded as “NC”. Also, the “change of lipid-protein interaction” value was “enhanced” at 6XHIS-ARV1-N98 C34/C37A and “restored” at GST-ARV1-N50.
Turning to `CCCCCC(=O)O[C@H](COC(=O)CCCCCNC(=O)CCCC[C@@H]1SC[C@@H]2NC(=O)N[C@@H]21)COP(=O)(O)O[C@H]1[C@H](O)[C@@H](O)[C@H](OP(=O)(O)O)[C@@H](O)[C@H]1O` [reference compound], the “Bio-PL, EC50, M ± S.D.” value at 6XHIS-N98 K67A was “weakened”. Also, the “change of lipid-protein interaction” value is listed as “increased interactions” at 6XHIS-ARV1-N98 K84A, “increased interactions” at 6XHIS-ARV1-N98 K67A and “enhanced interactions” at 6XHIS-ARV1-N98 C34/C37A.
Take phosphatidylcholine [PC]: the “Bio-PL, EC50, M ± S.D.” value at 6XHIS-N98 K67A was “NC”.
Regarding phosphatidylethanolamine [PE], the “change of lipid-protein interaction” value on 6XHIS-ARV1-N98 K67A is “interacted weakly”.
